Test results published in patent publication US20250257034A1, “INDOLE DERIVATIVES AS SEROTONERGIC AGENTS USEFUL FOR THE TREATMENT OF DISORDERS RELATED THERETO” (priority 2023, published 2025).
Read-outs that look alike come from different tables or passages of the source.

Assays:
[1] = Pharmacokinetic studies in rat (i.v.); format: in vivo; details: male, Sprague-Dawley, rat, plasma, dose 1.37 mg/kg (I-71, I-128), 1.33 mg/kg ((S) I-67); for concentration at 0.25 h / concentration at 1 h / concentration at 4 h: intravenous, rat i.v.; for AUC(0-t) / half-life: iv, rat plasma, i.v.; for half-life: estimated from 2 points only
Protocol: Animals: Male Sprague-Dawley rats (˜225-350 g) from Charles River Labs were acclimatized for a minimum of 5 days prior to start of study procedures. Body weights were recorded on the day of dosing.
Any abnormalities were documented including presence/absence of wet dog shakes/back muscle contractions (WDS/BMC).
Dosing: Formulations were administered intravenously (i.v.) via the tail vein using a 25 G needle connected to a 1 cc syringe.
The Compounds of Formula (I) were freshly prepared at the appropriate concentrations in 5% Tween-80 in saline.
Blood collection time (h): 0.25, 1 and 4.
Volume/time-point: ˜0.25 mL […] (saphenous vein).
Instrumentation: AB Sciex QTRAP 4000 or 6500 MS/MS system equipped with an LC system with a binary pump, a solvent degasser, a thermostatted column compartment and a multiplate autosampler.
Analysis software: Phoenix® WinNonlin® 8.3 (Pharsight, Certara, Mountainview, CA).
Analysis methods: non-compartmental analysis, linear up/log down trapezoidal rule.
PK parameters: t1/2 and AUC0-tlast were be estimated.
Volume/time-point: ˜0.25 mL (saphenous vein).
PK parameters: t1/2 and AUC0-tlast were estimated.

[2] = Rat liver microsomes stability; format: in vitro ADME; details: rat liver microsomes
Protocol: (§1) The objective of this study was to estimate in vitro metabolic stability of exemplary compounds of Formula (I) or a pharmaceutically acceptable salt, solvate, and/or prodrug thereof in pooled human, male rat, and male mouse liver microsomes. The concentrations of compounds in reaction systems were evaluated by LC-MS/MS for estimating the stability in pooled human, male rat, and male mouse liver microsomes. The in vitro intrinsic clearances of test compounds were determined as well.
(§2) A master solution in the “Incubation Plate” containing phosphate buffer, ultra-pure H2O, MgCl2 solution and liver microsomes was made according to Table 33. The mixture was pre-warmed at 37° C. water bath for 5 minutes.
(§3) 40 μL of 10 mM nicotinamide adenine dinucleotide phosphate (NADPH) solution was added to each well. The final concentration of NADPH was 1 mM. The negative control samples were prepared by replacing NADPH with 40 μL of ultra-pure H2O. Samples were prepared in duplicate. Negative controls were prepared in singlet.
(§4) The reaction was started with the addition of 4 μL of 200 μM exemplary test compounds of the disclosure or control compounds to each master solution to get the final concentration of 2 μM. This study was performed in duplicate.
(§5) Aliquots of 50 μL were taken from the reaction solution at 0, 15, 30, 45, and 60 minutes. The reaction solutions were stopped by the addition of 4 volumes of cold methanol with IS (100 nM alprazolam, 200 nM imipramine, 200 nM labet alol and 2 μM ketoprofen). Samples were centrifuged at 3,220 g for 40 minutes. Aliquot of 90 μL of the supernatant was mixed with 90 μL of ultra-pure H2O and then was used for LC-MS/MS analysis.
(§6) LC/MS analysis was performed for all samples from this study using a Shimadzu liquid chromatograph separation system equipped with degasser DGU-20A5R; solvent delivery unit LC-30AD; system controller SIL-30AC; column oven CTO-30A; CTC Analytics HTC PAL System. Mass spectrometric analysis was performed using a Triple Quad™ 5500 instrument.
(§7) All calculations were carried out using Microsoft Excel. Peak area ratios of test compound to internal standard (listed in the below table) were determined from extracted ion chromatograms.
(§8) All calculations were carried out using Microsoft Excel. Peak areas were determined from extracted ion chromatograms. The slope value, k, was determined by linear regression of the natural logarithm of the remaining percentage of the parent drug vs. incubation time curve.
(§9) The in vitro half-life (in vitro t1/2) was determined from the slope value:
(§10) Conversion of the in vitro t1/2(min) into the in vitro intrinsic clearance (in vitro CLint, in μL/min/mg proteins) was done using the following equation (mean of duplicate determinations): […]
(§11) A master solution in the “Incubation Plate” containing phosphate buffer, ultra-pure H2O, MgCl2 solution and liver microsomes was made according to Table 63. The mixture was pre-warmed at 37° C. water bath for 5 minutes.
(§12) 40 μL of 10 mM NADPH solution was added to each well. The final concentration of NADPH was 1 mM. The negative control samples were prepared by replacing NADPH with 40 μL of ultra-pure H2O. Samples were prepared in duplicate. Negative controls were prepared in singlet.
(§13) Conversion of the in vitro t1/2(min) into the in vitro intrinsic clearance (in vitro C Lt, in μL/min/mg proteins) was done using the following equation (mean of duplicate determinations): […]

[3] = Human liver microsomes stability; format: in vitro ADME; details: human liver microsomes
Protocol: as §1, §2, §3, §4, §5, §6, §7, §8, §9, §10, §11, §12, §13

[4] = first individual rat (R01/R04), read-out: Plasma concentration
[5] = mean of 3 rats, read-out: Plasma concentration, Mean ± SD
[6] = second individual rat (R02/R05), read-out: Plasma concentration
[7] = third individual rat (R03/R06), read-out: Plasma concentration

## COc1ccc2[nH]cc(CCN3CC[C@H](OC(F)F)C3)c2c1 [(S) I-67, (S)-3-(2-(3-(Difluoromethoxy)pyrrolidin-1-yl)ethyl)-5-methoxy-1H-indole]
[1]; [4]
  concentration at 0.25 h: 413 ng/mL
  concentration at 1 h: 172 ng/mL
  concentration at 4 h: 5.35 ng/mL
[1]; [5]
  concentration at 0.25 h: 436 ± 32.4 ng/mL
  concentration at 1 h: 162 ± 9.07 ng/mL
  concentration at 4 h: 6.96 ± 1.54 ng/mL
[1]; [6]
  concentration at 0.25 h: 473 ng/mL
  concentration at 1 h: 155 ng/mL
  concentration at 4 h: 8.41 ng/mL
[1]; [7]
  concentration at 0.25 h: 422 ng/mL
  concentration at 1 h: 158 ng/mL
  concentration at 4 h: 7.12 ng/mL
[1]; first individual rat (R01/R04), read-out: AUC0-tlast
  AUC(0-t): 470 ng·h/mL
[1]; first individual rat (R01/R04), read-out: Apparent t1/2 (converted)
  half-life: 35.9 min
[1]; mean of 3 rats, read-out: AUC0-tlast, Mean ± SD
  AUC(0-t): 484 ± 21.1 ng·h/mL
[1]; mean of 3 rats, read-out: Apparent t1/2, Mean ± SD (converted)
  half-life: 38.2 ± 2.02 min
[1]; second individual rat (R02/R05), read-out: AUC0-tlast
  AUC(0-t): 508 ng·h/mL
[1]; second individual rat (R02/R05), read-out: Apparent t1/2 (converted)
  half-life: 39.8 min
[1]; third individual rat (R03/R06), read-out: AUC0-tlast
  AUC(0-t): 472 ng·h/mL
[1]; third individual rat (R03/R06), read-out: Apparent t1/2 (converted)
  half-life: 38.8 min
[2]; male, pooled liver microsomes, 2 μM compound, 0.5 mg/mL
  half-life at 2 μM: < 4.51 min
[2]; male, pooled liver microsomes, read-out: Scaled-up CLint
  CLint scaled at 2 μM: > 550 mL/min/kg
[2]; male, rat, pooled liver microsomes, 2 μM compound, 0.5 mg/mL, read-out: CLint (μL/min/mg protein)
  microsomal CLint at 2 μM: > 307 µL/min/mg
[2]
  Predicted hepatic CL: >50.17 mL/min/kg
[2]; With Cofactors, 0 min
  Remaining Percentage (%): 100.00%
[2]; With Cofactors, 30 min
  Remaining Percentage (%): 0.00%
[2]; With Cofactors, 60 min
  Remaining Percentage (%): 0.00%
[2]; Without Cofactors, 0 min
  Remaining Percentage (%): 100.00%
[2]; Without Cofactors, 30 min
  Remaining Percentage (%): 99.06%
[2]; Without Cofactors, 60 min
  Remaining Percentage (%): 96.86%
[3]
  Predicted hepatic CL: 13.30 mL/min/kg
[3]; 2 μM compound, 0.5 mg/mL
  half-life at 2 μM: 46.8 min
[3]; 2 μM compound, 0.5 mg/mL, read-out: CLint (μL/min/mg protein)
  microsomal CLint at 2 μM: 29.6 µL/min/mg
[3]; With Cofactors, 0 min
  Remaining Percentage (%): 100.00%
[3]; With Cofactors, 30 min
  Remaining Percentage (%): 66.20%
[3]; With Cofactors, 60 min
  Remaining Percentage (%): 41.10%
[3]; Without Cofactors, 0 min
  Remaining Percentage (%): 100.00%
[3]; Without Cofactors, 30 min
  Remaining Percentage (%): 98.68%
[3]; Without Cofactors, 60 min
  Remaining Percentage (%): 100.00%
[3]; read-out: Scaled-up CLint
  CLint scaled at 2 μM: 37.2 mL/min/kg
